Test results from PubChem BioAssay (NCI).
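Five compound concentrations were applied to cells in 96-well plates for 48 hours; endpoints were derived by simple linear interpolation of the resulting dose-response curve. TGI is the concentration that stops growth completely.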

What was measured:
Assay in all cases: NCI tumour cell line growth inhibition, 48 h
HL-60(TB) leukemia = test system: HL-60(TB) leukemia
HCT-116 colon = test system: HCT-116 colon
CAKI-1 renal = test system: CAKI-1 renal
HOP-62 NSCLC = test system: HOP-62 NSCLC
MALME-3M melanoma = test system: MALME-3M melanoma
MDA-MB-435 = test system: MDA-MB-435
NCI-H522 lung = test system: NCI-H522 lung
T-47D breast = test system: T-47D breast
OVCAR-5 ovarian = test system: OVCAR-5 ovarian
CCRF-CEM leukemia = test system: CCRF-CEM leukemia
M14 melanoma = test system: M14 melanoma
A549 NSCLC = test system: A549 NSCLC
HCT-15 colon = test system: HCT-15 colon
SR leukemia = test system: SR leukemia
MCF7 breast = test system: MCF7 breast
UO-31 renal = test system: UO-31 renal
HT29 colon = test system: HT29 colon
K-562 leukemia = test system: K-562 leukemia
SNB-19 CNS = test system: SNB-19 CNS
IGROV1 ovarian = test system: IGROV1 ovarian
KM12 colon = test system: KM12 colon
NCI-H460 lung = test system: NCI-H460 lung
SK-MEL-28 melanoma = test system: SK-MEL-28 melanoma
SK-MEL-5 melanoma = test system: SK-MEL-5 melanoma
HOP-92 NSCLC = test system: HOP-92 NSCLC
ACHN renal = test system: ACHN renal
OVCAR-8 ovarian = test system: OVCAR-8 ovarian
NCI-H226 lung = test system: NCI-H226 lung
SN12C renal = test system: SN12C renal
RPMI-8226 leukemia = test system: RPMI-8226 leukemia
OVCAR-4 ovarian = test system: OVCAR-4 ovarian
SF-539 CNS = test system: SF-539 CNS
TK-10 renal = test system: TK-10 renal
A498 renal = test system: A498 renal
SK-MEL-2 melanoma = test system: SK-MEL-2 melanoma
U251 CNS = test system: U251 CNS
OVCAR-3 ovarian = test system: OVCAR-3 ovarian
HS 578T breast = test system: HS 578T breast
SF-295 CNS = test system: SF-295 CNS
RXF 393 renal = test system: RXF 393 renal
LOX IMVI melanoma = test system: LOX IMVI melanoma
HCC-2998 colon = test system: HCC-2998 colon
MDA-N = test system: MDA-N
PC-3 prostate = test system: PC-3 prostate
UACC-62 melanoma = test system: UACC-62 melanoma
SNB-75 CNS = test system: SNB-75 CNS
MDA-MB-231 breast = test system: MDA-MB-231 breast
786-0 renal = test system: 786-0 renal
COLO 205 colon = test system: COLO 205 colon
DU-145 prostate = test system: DU-145 prostate
MOLT-4 leukemia = test system: MOLT-4 leukemia
BT-549 breast = test system: BT-549 breast
NCI/ADR-RES ovarian = test system: NCI/ADR-RES ovarian
SF-268 CNS = test system: SF-268 CNS
NCI-H23 lung = test system: NCI-H23 lung
UACC-257 melanoma = test system: UACC-257 melanoma
EKVX NSCLC = test system: EKVX NSCLC
SK-OV-3 ovarian = test system: SK-OV-3 ovarian
SW-620 colon = test system: SW-620 colon

CC(=O)OCC1OC(n2c3c(cc(C#N)c2=O)CCCCCC3)C(OC(C)=O)C(OC(C)=O)C1OC(C)=O (configuration not stated)
TGI (HL-60(TB) leukemia): > 100 µM | TGI (HCT-116 colon): > 100 µM | TGI (CAKI-1 renal): > 100 µM | TGI (HOP-62 NSCLC): > 100 µM | TGI (MALME-3M melanoma): > 100 µM | TGI (MDA-MB-435): > 100 µM | TGI (NCI-H522 lung): > 100 µM | TGI (T-47D breast): 90.3 µM | TGI (OVCAR-5 ovarian): > 100 µM | TGI (CCRF-CEM leukemia): > 100 µM | TGI (M14 melanoma): > 100 µM | TGI (A549 NSCLC): > 100 µM | TGI (HCT-15 colon): > 100 µM | TGI (SR leukemia): > 100 µM | TGI (MCF7 breast): > 100 µM | TGI (UO-31 renal): > 100 µM | TGI (HT29 colon): > 100 µM | TGI (K-562 leukemia): > 100 µM | TGI (SNB-19 CNS): > 100 µM | TGI (IGROV1 ovarian): > 100 µM | TGI (KM12 colon): > 100 µM | TGI (NCI-H460 lung): > 100 µM | TGI (SK-MEL-28 melanoma): > 100 µM | TGI (SK-MEL-5 melanoma): > 100 µM | TGI (HOP-92 NSCLC): > 100 µM | TGI (ACHN renal): > 100 µM | TGI (OVCAR-8 ovarian): > 100 µM | TGI (NCI-H226 lung): > 100 µM | TGI (SN12C renal): > 100 µM | TGI (RPMI-8226 leukemia): > 100 µM | TGI (OVCAR-4 ovarian): > 100 µM | TGI (SF-539 CNS): > 100 µM | TGI (TK-10 renal): > 100 µM | TGI (A498 renal): > 100 µM | TGI (SK-MEL-2 melanoma): > 100 µM | TGI (U251 CNS): > 100 µM | TGI (OVCAR-3 ovarian): > 100 µM | TGI (HS 578T breast): > 100 µM | TGI (SF-295 CNS): > 100 µM | TGI (RXF 393 renal): > 100 µM | TGI (LOX IMVI melanoma): > 100 µM | TGI (HCC-2998 colon): > 100 µM | TGI (MDA-N): > 100 µM | TGI (PC-3 prostate): > 100 µM | TGI (UACC-62 melanoma): > 100 µM | TGI (SNB-75 CNS): > 100 µM | TGI (MDA-MB-231 breast): > 100 µM | TGI (786-0 renal): > 100 µM | TGI (COLO 205 colon): > 100 µM | TGI (DU-145 prostate): > 100 µM | TGI (MOLT-4 leukemia): > 100 µM | TGI (BT-549 breast): > 100 µM | TGI (NCI/ADR-RES ovarian): > 100 µM | TGI (SF-268 CNS): > 100 µM | TGI (NCI-H23 lung): > 100 µM | TGI (UACC-257 melanoma): > 100 µM

O=C(O)CCN1CCN(CCC(=O)O)CCN(CCC(=O)O)CC1
TGI (HL-60(TB) leukemia): 89.3 µM | TGI (HCT-116 colon): > 100 µM | TGI (EKVX NSCLC): > 100 µM | TGI (CAKI-1 renal): > 100 µM | TGI (HOP-62 NSCLC): > 100 µM | TGI (MALME-3M melanoma): > 100 µM | TGI (MDA-MB-435): > 100 µM | TGI (NCI-H522 lung): > 100 µM | TGI (T-47D breast): > 100 µM | TGI (OVCAR-5 ovarian): > 100 µM | TGI (CCRF-CEM leukemia): > 100 µM | TGI (M14 melanoma): > 100 µM | TGI (A549 NSCLC): > 100 µM | TGI (HCT-15 colon): > 100 µM | TGI (SR leukemia): > 100 µM | TGI (MCF7 breast): > 100 µM | TGI (UO-31 renal): > 100 µM | TGI (HT29 colon): > 100 µM | TGI (K-562 leukemia): > 100 µM | TGI (SNB-19 CNS): > 100 µM | TGI (IGROV1 ovarian): > 100 µM | TGI (KM12 colon): > 100 µM | TGI (NCI-H460 lung): > 100 µM | TGI (SK-MEL-28 melanoma): > 100 µM | TGI (SK-MEL-5 melanoma): > 100 µM | TGI (HOP-92 NSCLC): > 100 µM | TGI (ACHN renal): > 100 µM | TGI (OVCAR-8 ovarian): > 100 µM | TGI (NCI-H226 lung): > 100 µM | TGI (SN12C renal): > 100 µM | TGI (RPMI-8226 leukemia): > 100 µM | TGI (OVCAR-4 ovarian): > 100 µM | TGI (SF-539 CNS): > 100 µM | TGI (TK-10 renal): > 100 µM | TGI (A498 renal): > 100 µM | TGI (SK-MEL-2 melanoma): > 100 µM | TGI (U251 CNS): > 100 µM | TGI (OVCAR-3 ovarian): > 100 µM | TGI (HS 578T breast): > 100 µM | TGI (SF-295 CNS): > 100 µM | TGI (LOX IMVI melanoma): > 100 µM | TGI (HCC-2998 colon): > 100 µM | TGI (MDA-N): > 100 µM | TGI (PC-3 prostate): > 100 µM | TGI (UACC-62 melanoma): > 100 µM | TGI (SNB-75 CNS): > 100 µM | TGI (MDA-MB-231 breast): > 100 µM | TGI (786-0 renal): > 100 µM | TGI (COLO 205 colon): > 100 µM | TGI (SK-OV-3 ovarian): > 100 µM | TGI (SW-620 colon): > 100 µM | TGI (DU-145 prostate): > 100 µM | TGI (MOLT-4 leukemia): > 100 µM | TGI (BT-549 breast): > 100 µM | TGI (NCI/ADR-RES ovarian): > 100 µM | TGI (UACC-257 melanoma): > 100 µM
